Reference: ChEMBL document CHEMBL4680085 (J Med Chem, 2016)
pIC50: −log10 of the molar value.

molecular target: Acetylcholinesterase (Homo sapiens, UniProt P22303); assay: Inhibition of AChE in human erythrocyte hemo-lyzates pre-incubated for 5 mins before addition of acetylthiocholine iodide substrate by Ellman's method; format: tissue-based; conditions: not given
Sequence (P22303 whole entry): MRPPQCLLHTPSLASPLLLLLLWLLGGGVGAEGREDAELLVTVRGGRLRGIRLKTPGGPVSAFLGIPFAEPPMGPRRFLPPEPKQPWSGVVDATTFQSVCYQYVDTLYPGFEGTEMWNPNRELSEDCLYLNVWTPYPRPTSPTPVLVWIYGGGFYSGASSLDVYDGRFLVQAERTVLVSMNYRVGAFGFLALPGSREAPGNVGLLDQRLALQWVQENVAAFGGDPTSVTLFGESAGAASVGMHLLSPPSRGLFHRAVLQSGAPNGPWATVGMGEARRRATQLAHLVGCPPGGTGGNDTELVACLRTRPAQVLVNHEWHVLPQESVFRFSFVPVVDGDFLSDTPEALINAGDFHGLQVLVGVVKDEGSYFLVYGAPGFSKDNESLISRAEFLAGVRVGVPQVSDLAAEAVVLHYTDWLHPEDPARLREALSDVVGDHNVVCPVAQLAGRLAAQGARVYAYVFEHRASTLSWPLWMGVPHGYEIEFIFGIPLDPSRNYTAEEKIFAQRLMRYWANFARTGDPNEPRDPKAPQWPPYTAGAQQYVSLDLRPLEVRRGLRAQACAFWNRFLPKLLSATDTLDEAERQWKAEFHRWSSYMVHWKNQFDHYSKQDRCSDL

**Q.** With `COc1ccc2nc3c(c(NCCCCCCCCN(CC(=O)NCCc4c[nH]c5ccc(OC)cc45)C(=O)CCCC[C@@H]4CCSS4)c2c1)CCCC3` as the molecule, how does the pIC50 read?
**A.** Its pIC50 is < 5.00.

**Q.** With `COc1ccc2nc3c(c(NCCCCCCN(CC(=O)NCCc4c[nH]c5ccc(OC)cc45)C(=O)CCCC[C@@H]4CCSS4)c2c1)CCCC3` as the molecule, how does the pIC50 read?
**A.** Its pIC50 is < 5.00.

**Q.** With `COc1ccc2nc3c(c(NCCCCCCCN(CC(=O)NCCc4c[nH]c5ccc(OC)cc45)C(=O)CCCC[C@@H]4CCSS4)c2c1)CCCC3` as the molecule, how does the pIC50 read?
**A.** Its pIC50 is < 5.00.

molecular target: Cholinesterase (Equus caballus, UniProt P81908); assay: not given; conditions: not given
Sequence (P81908 whole entry): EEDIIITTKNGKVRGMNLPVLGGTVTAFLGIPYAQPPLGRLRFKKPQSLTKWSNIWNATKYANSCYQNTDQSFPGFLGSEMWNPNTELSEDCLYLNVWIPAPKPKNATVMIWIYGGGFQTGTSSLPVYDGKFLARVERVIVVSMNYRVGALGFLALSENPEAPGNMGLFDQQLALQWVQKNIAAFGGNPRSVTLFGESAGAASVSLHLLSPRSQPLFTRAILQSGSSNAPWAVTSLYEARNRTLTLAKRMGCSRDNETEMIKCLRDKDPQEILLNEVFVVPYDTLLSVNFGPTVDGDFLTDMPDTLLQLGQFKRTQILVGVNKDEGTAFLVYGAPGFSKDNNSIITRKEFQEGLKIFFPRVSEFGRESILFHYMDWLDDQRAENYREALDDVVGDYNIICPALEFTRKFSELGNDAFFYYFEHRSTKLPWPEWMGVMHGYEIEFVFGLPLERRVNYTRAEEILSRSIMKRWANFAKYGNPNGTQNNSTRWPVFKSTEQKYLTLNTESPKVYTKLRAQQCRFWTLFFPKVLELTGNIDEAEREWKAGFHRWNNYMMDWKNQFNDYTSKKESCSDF

**Q.** With `COc1ccc2nc3c(c(NCCCCCCCCN(CC(=O)NCCc4c[nH]c5ccc(OC)cc45)C(=O)CCCC[C@@H]4CCSS4)c2c1)CCCC3` as the molecule, how does the pIC50 read?
**A.** Its pIC50 is 8.09.

**Q.** With `COc1ccc2nc3c(c(NCCCCCCN(CC(=O)NCCc4c[nH]c5ccc(OC)cc45)C(=O)CCCC[C@@H]4CCSS4)c2c1)CCCC3` as the molecule, how does the pIC50 read?
**A.** The pIC50 was 8.41.

**Q.** With `COc1ccc2nc3c(c(NCCCCCCCN(CC(=O)NCCc4c[nH]c5ccc(OC)cc45)C(=O)CCCC[C@@H]4CCSS4)c2c1)CCCC3` as the molecule, how does the pIC50 read?
**A.** The pIC50 was 8.27.

system: not listed separately; assay: in vitro; conditions: human, HepG2 cells
Description: Toxicity in human HepG2 cells assessed as cell viability at 1000 uM by MTT assay relative to control

**Q.** For `COc1ccc2nc3c(c(NCCCCCCCCN(CC(=O)NCCc4c[nH]c5ccc(OC)cc45)C(=O)CCCC[C@@H]4CCSS4)c2c1)CCCC3`, which viability at 1000 µM is on record?
**A.** The viability at 1000 µM was 44.9%.

**Q.** For `COc1ccc2nc3c(c(NCCCCCCN(CC(=O)NCCc4c[nH]c5ccc(OC)cc45)C(=O)CCCC[C@@H]4CCSS4)c2c1)CCCC3`, which viability at 1000 µM is on record?
**A.** The viability at 1000 µM was 44.8%.

**Q.** With `COc1ccc2nc3c(c(NCCCCCCCN(CC(=O)NCCc4c[nH]c5ccc(OC)cc45)C(=O)CCCC[C@@H]4CCSS4)c2c1)CCCC3` as the molecule, how does the viability at 1000 µM read?
**A.** The viability at 1000 µM was 48.9%.

system: not listed separately; assay: in vitro; conditions: human, HepG2 cells; remark: another data set of the same source
Description: Toxicity in human HepG2 cells assessed as cell viability at 300 uM by MTT assay relative to control

**Q.** Which viability at 300 µM does the source give for `COc1ccc2nc3c(c(NCCCCCCCCN(CC(=O)NCCc4c[nH]c5ccc(OC)cc45)C(=O)CCCC[C@@H]4CCSS4)c2c1)CCCC3` here?
**A.** The viability at 300 µM was 77.8%.

**Q.** Which viability at 300 µM does the source give for `COc1ccc2nc3c(c(NCCCCCCN(CC(=O)NCCc4c[nH]c5ccc(OC)cc45)C(=O)CCCC[C@@H]4CCSS4)c2c1)CCCC3` here?
**A.** The viability at 300 µM was 46.4%.

**Q.** For `COc1ccc2nc3c(c(NCCCCCCCN(CC(=O)NCCc4c[nH]c5ccc(OC)cc45)C(=O)CCCC[C@@H]4CCSS4)c2c1)CCCC3`, which viability at 300 µM is on record?
**A.** Its viability at 300 µM is 57.7%.

molecular target: Cholinesterase (Homo sapiens, UniProt P06276); assay: Inhibition of BuChE in human erythrocyte hemo-lyzates pre-incubated for 5 mins before addition of butyrylthiocholine iodide substrate by Ellman's method; format: tissue-based; conditions: not given
Sequence (P06276 whole entry): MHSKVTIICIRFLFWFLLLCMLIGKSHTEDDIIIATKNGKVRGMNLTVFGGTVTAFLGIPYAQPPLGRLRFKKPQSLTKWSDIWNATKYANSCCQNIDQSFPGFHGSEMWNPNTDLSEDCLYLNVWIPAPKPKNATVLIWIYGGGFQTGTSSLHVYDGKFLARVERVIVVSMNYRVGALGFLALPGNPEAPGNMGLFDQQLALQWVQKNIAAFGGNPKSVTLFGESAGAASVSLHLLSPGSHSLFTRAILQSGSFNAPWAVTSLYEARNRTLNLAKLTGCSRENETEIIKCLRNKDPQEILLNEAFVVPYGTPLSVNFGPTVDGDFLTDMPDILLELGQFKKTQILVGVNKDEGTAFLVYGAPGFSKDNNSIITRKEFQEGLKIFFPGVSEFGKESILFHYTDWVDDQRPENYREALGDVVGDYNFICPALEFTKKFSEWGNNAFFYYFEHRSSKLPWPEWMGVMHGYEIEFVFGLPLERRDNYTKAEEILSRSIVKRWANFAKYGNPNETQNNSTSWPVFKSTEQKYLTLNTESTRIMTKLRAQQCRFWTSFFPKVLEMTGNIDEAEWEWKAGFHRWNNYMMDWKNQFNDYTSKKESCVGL

**Q.** With `COc1ccc2nc3c(c(NCCCCCCCCN(CC(=O)NCCc4c[nH]c5ccc(OC)cc45)C(=O)CCCC[C@@H]4CCSS4)c2c1)CCCC3` as the molecule, how does the pIC50 read?
**A.** The pIC50 was 5.76.

**Q.** With `COc1ccc2nc3c(c(NCCCCCCN(CC(=O)NCCc4c[nH]c5ccc(OC)cc45)C(=O)CCCC[C@@H]4CCSS4)c2c1)CCCC3` as the molecule, how does the pIC50 read?
**A.** Its pIC50 is 5.73.

**Q.** With `COc1ccc2nc3c(c(NCCCCCCCN(CC(=O)NCCc4c[nH]c5ccc(OC)cc45)C(=O)CCCC[C@@H]4CCSS4)c2c1)CCCC3` as the molecule, how does the pIC50 read?
**A.** The pIC50 was 5.58.

system: not listed separately; assay: in vitro; conditions: human, HepG2 cells; remark: another data set of the same source
Description: Toxicity in human HepG2 cells assessed as cell viability at 100 uM by MTT assay relative to control

**Q.** With `COc1ccc2nc3c(c(NCCCCCCCCN(CC(=O)NCCc4c[nH]c5ccc(OC)cc45)C(=O)CCCC[C@@H]4CCSS4)c2c1)CCCC3` as the molecule, how does the viability at 100 µM read?
**A.** Its viability at 100 µM is 86.2%.

**Q.** Which viability at 100 µM does the source give for `COc1ccc2nc3c(c(NCCCCCCN(CC(=O)NCCc4c[nH]c5ccc(OC)cc45)C(=O)CCCC[C@@H]4CCSS4)c2c1)CCCC3` here?
**A.** Its viability at 100 µM is 68.7%.

**Q.** With `COc1ccc2nc3c(c(NCCCCCCCN(CC(=O)NCCc4c[nH]c5ccc(OC)cc45)C(=O)CCCC[C@@H]4CCSS4)c2c1)CCCC3` as the molecule, how does the viability at 100 µM read?
**A.** The viability at 100 µM was 62.8%.

molecular target: Acetylcholinesterase (Electrophorus electricus, UniProt O42275); assay: Inhibition of Electrophorus electricus AChE pre-incubated for 10 mins before addition of acetylthiocholine iodide substrate and further incubated for 15 mins by Ellman's method; conditions: not given
Sequence (O42275 whole entry): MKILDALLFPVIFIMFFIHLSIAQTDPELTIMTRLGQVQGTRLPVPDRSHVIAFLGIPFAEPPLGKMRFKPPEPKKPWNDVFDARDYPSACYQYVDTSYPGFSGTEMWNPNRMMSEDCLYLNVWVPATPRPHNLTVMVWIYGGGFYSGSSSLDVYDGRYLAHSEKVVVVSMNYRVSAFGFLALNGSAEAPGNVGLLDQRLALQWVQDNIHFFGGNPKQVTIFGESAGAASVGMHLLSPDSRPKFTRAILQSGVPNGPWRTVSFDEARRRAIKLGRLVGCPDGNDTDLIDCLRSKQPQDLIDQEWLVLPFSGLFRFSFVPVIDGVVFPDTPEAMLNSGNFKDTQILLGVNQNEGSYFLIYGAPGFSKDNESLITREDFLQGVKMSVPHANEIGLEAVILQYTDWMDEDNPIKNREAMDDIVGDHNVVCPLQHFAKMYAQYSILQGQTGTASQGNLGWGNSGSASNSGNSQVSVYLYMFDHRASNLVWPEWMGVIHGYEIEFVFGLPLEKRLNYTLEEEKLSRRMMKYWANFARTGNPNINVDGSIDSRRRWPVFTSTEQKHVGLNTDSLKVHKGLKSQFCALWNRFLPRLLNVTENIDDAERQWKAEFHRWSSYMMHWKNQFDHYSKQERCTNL

**Q.** With `COc1ccc2nc3c(c(NCCCCCCCCN(CC(=O)NCCc4c[nH]c5ccc(OC)cc45)C(=O)CCCC[C@@H]4CCSS4)c2c1)CCCC3` as the molecule, how does the pIC50 read?
**A.** Its pIC50 is 7.83.

**Q.** With `COc1ccc2nc3c(c(NCCCCCCN(CC(=O)NCCc4c[nH]c5ccc(OC)cc45)C(=O)CCCC[C@@H]4CCSS4)c2c1)CCCC3` as the molecule, how does the pIC50 read?
**A.** Its pIC50 is 7.80.

**Q.** With `COc1ccc2nc3c(c(NCCCCCCCN(CC(=O)NCCc4c[nH]c5ccc(OC)cc45)C(=O)CCCC[C@@H]4CCSS4)c2c1)CCCC3` as the molecule, how does the pIC50 read?
**A.** The pIC50 was 8.12.
